In general, EC50 refers to the concentration at which the effect is half-maximal. Broadly, the IC50 is the concentration that inhibits the measured activity by half.

Consider 27 compounds from patent US10336762B2 (priority 2017, dated 2019).

Read-outs that look alike come from different tables or passages of the source.

Assay [1] has as its system TNFα. The experiment in a line: cells. Type of assay: cell-based, human. The settings on record: LPS-stimulated human monocytes, TNFα content, read-out: EC50 TNF.
Assay [2] concerns the target IRAK4 enzyme (Homo sapiens (Human), UniProt Q9NWZ3). The experiment in a line: biochemical. It is filed as biochemical. Conditions: IRAK4 enzyme, TR-FRET, 500 μM ATP. (In general: Time-resolved FRET reads energy transfer from a long-lived donor to a nearby acceptor.)

IRAK4 enzyme, sequence (Q9NWZ3 whole entry): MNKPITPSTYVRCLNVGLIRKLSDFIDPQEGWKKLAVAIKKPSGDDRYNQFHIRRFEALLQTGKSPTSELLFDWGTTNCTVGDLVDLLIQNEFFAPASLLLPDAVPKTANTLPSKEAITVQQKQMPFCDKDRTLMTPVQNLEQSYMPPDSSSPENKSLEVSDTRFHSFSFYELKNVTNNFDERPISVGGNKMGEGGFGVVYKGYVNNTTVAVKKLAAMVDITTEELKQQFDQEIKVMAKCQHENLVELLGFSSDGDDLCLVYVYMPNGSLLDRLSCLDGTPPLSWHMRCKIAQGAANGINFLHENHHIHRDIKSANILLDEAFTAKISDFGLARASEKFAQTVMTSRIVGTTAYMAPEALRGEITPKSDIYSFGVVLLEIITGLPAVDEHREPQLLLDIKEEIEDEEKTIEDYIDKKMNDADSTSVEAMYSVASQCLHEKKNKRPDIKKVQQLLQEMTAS

For the compound `CC(C)(O)[C@H](F)CNC(=O)c1cnc(-c2ccc3cc(C#N)cnn23)cc1NC1CC2CCC(C1)N2` (stereo partly drawn) [Example 14, 4-(((1R,3r,5S)-8-azabicyclo[3.2.1]octan-3-yl)amino)-6-(3-cyanopyrrolo[1,2-b]pyridazin-7-yl)-N-((R)-2-fluoro-3-hydroxy-3-methylbutyl)nicotinamide], in assay [1] (Homo sapiens, Monocyte), the EC50 turned out to be 626 nM. The compound also yielded an IC50 in assay [2] of 3 nM.
As for `CC(C)(O)[C@H](F)CNC(=O)c1cnc(-c2ccc3cc(C#N)cnn23)cc1NC1CC2CCC(C1)N2S(C)(=O)=O` (stereo partly drawn) [Example 15, 6-(3-cyanopyrrolo[1,2-b]pyridazin-7-yl)-N-((R)-2-fluoro-3-hydroxy-3-methylbutyl)-4-(((1R,3r,5S)-8-(methylsulfonyl)-8-azabicyclo[3.2.1]octan-3-yl)amino)nicotinamide], the EC50 in assay [1] was found to be 302 nM. The compound also came in with an IC50 in assay [2] of 4 nM.
As to `CC(=O)N1CCC(Nc2cc(-c3ccc4cc(C#N)cnn34)ncc2C(=O)NC[C@@H](F)C(C)(C)O)CC1` [Example 16, (R)-4-((1-acetylpiperidin-4-yl)amino)-6-(3-cyanopyrrolo[1,2-b]pyridazin-7-yl)-N-(2-fluoro-3-hydroxy-3-methylbutyl)nicotinamide], the EC50 in assay [1] (Homo sapiens, Monocyte) is 204 nM. The compound further registered an IC50 in assay [2] of 2 nM.
Consider `CC(C)Nc1cc(-c2ccc3cc(-c4nnn[nH]4)cnn23)ncc1C(=O)NC[C@@H](F)C(C)(C)O` [Example 17, (R)-6-(3-(1H-tetrazol-5-yl)pyrrolo[1,2-b]pyridazin-7-yl)-N-(2-fluoro-3-hydroxy-3-methylbutyl)-4-(isopropylamino)nicotinamide], for which, in assay [1] (Homo sapiens, Monocyte), the EC50 was determined as 5200 nM. The compound also had an IC50 in assay [2] of 24 nM.
Take `CC(C)Nc1cc(-c2ccc3cc(C#N)cnn23)ncc1C(=O)NCCS(N)(=O)=O` [Example 20, 6-(3-cyanopyrrolo[1,2-b]pyridazin-7-yl)-4-(isopropyl-amino)-N-(2-sulfamoylethyl)nicotinamide]: the EC50 in assay [1] (Homo sapiens, Monocyte) came to 128 nM. In assay [2], the IC50 came out at 2 nM.
Consider `CC(C)Nc1cc(-c2ccc3cc(C#N)cnn23)ncc1C(=O)NCCc1ccc(S(N)(=O)=O)cc1` [Example 21, 6-(3-cyanopyrrolo[1,2-b]pyridazin-7-yl)-4-(isopropylamino)-N-(4-sulfamoylphenethyl) nicotinamide], for which the EC50 in assay [1] (Homo sapiens, Monocyte) amounted to 69 nM. Further, the IC50 in assay [2] is under 1 nM.
The matching figures for `CNC(=O)C1CCC(NC(=O)c2cnc(-c3ccc4cc(C#N)cnn34)cc2NC(C)C)CC1` (stereo not drawn) [Example 22, 6-(3-cyanopyrrolo[1,2-b]pyridazin-7-yl)-4-(isopropyl-amino)-N-((1r,4r)-4-(methylcarbamoyl)cyclohexyl) nicotinamide]: 87 nM and under 1 nM.
For `CC(C)(O)[C@H](F)CNC(=O)c1cnc(-c2ccc3cc(C#N)cnn23)cc1NC1CCNCC1` [Example 23, (R)-6-(3-cyanopyrrolo[1,2-b]pyridazin-7-yl)-N-(2-fluoro-3-hydroxy-3-methylbutyl)-4-(piperidin-4-ylamino)nicotinamide], the EC50 in assay [1] (Homo sapiens, Monocyte) was found to be 676 nM. Besides, in assay [2], the IC50 was 3 nM.
As to `CC(C)(O)[C@H](F)CNC(=O)c1cnc(-c2ccc3cc(C#N)cnn23)cc1NC1CC2CCC(C1)N2` (stereo partly drawn) [Example 24, 4-(((1R,3s,5S)-8-azabicyclo[3.2.1]octan-3-yl)amino)-6-(3-cyanopyrrolo[1,2-b]pyridazin-7-yl)-N-((R)-2-fluoro-3-hydroxy-3-methylbutyl)nicotinamide], in assay [1], the EC50 was 642 nM. Moreover, in assay [2], the IC50 came to 2 nM.
On the same counts, the results for `CC(C)(O)[C@H](F)CNC(=O)c1cnc(-c2ccc3cc(C#N)cnn23)cc1NC1CC2CCC(C1)N2S(C)(=O)=O` (stereo partly drawn) [Example 29, 6-(3-cyanopyrrolo[1,2-b]pyridazin-7-yl)-N-((R)-2-fluoro-3-hydroxy-3-methylbutyl)-4-(((1R,3s,5S)-8-(methylsulfonyl)-8-azabicyclo[3.2.1]octan-3-yl)amino)nicotinamide] are 100 nM and under 1 nM.
On to `CC(C)(O)[C@H](F)CNC(=O)c1cnc(-c2ccc3cc(C#N)cnn23)cc1NC1C2CC1CN(S(C)(=O)=O)C2` (stereo partly drawn) [Example 30, 6-(3-cyanopyrrolo[1,2-b]pyridazin-7-yl)-N-((R)-2-fluoro-3-hydroxy-3-methyl-butyl)-4-((3-(methylsulfonyl)-3-azabicyclo[3.1.1]heptan-6-yl)amino)nicotinamide], for which the EC50 in assay [1] (Homo sapiens, Monocyte) was 732 nM. In addition, the IC50 in assay [2] was found to be 3 nM.
On the same counts, the results for `CC(C)(O)[C@H](F)CNC(=O)c1cnc(-c2ccc3cc(C#N)cnn23)cc1NC1C2CCC1CN(S(C)(=O)=O)C2` (stereo partly drawn) [Example 31, 6-(3-cyanopyrrolo[1,2-b]pyridazin-7-yl)-N-((R)-2-fluoro-3-hydroxy-3-methylbutyl)-4-((3-(methylsulfonyl)-3-azabicyclo[3.2.1]octan-8-yl)amino)nicotinamide] are 757 nM and 16 nM.
Turning to `CC(C)(O)[C@H](F)CNC(=O)c1cnc(-c2ccc3cc(C#N)cnn23)cc1N[C@H]1C[C@@H]2C[C@H]1CN2` [Example 32, 4-(((1S,4S,5S)-2-azabicyclo[2.2.1]heptan-5-yl)amino)-6-(3-cyano-pyrrolo[1,2-b]pyridazin-7-yl)-N-((R)-2-fluoro-3-hydroxy-3-methylbutyl)nicotinamide], in assay [1] (Homo sapiens, Monocyte), the EC50 was over 10000 nM. In assay [2], this compound had an IC50 of 3 nM.
For the compound `CC(C)(C)Nc1cc(-c2ccc3cc(C#N)cnn23)ncc1C(=O)NC[C@@H](F)C(C)(C)O` [Example 33, (R)-4-(tert-butylamino)-6-(3-cyanopyrrolo[1,2-b]pyridazin-7-yl)-N-(2-fluoro-3-hydroxy-3-methylbutyl)nicotinamide], the EC50 in assay [1] (Homo sapiens, Monocyte) turned out to be 29 nM. In addition, the IC50 in assay [2] was under 1 nM.
The matching figures for `CC(C)Nc1cc(-c2ccc3cc(C#N)cnn23)ncc1C(=O)NS(C)(=O)=O` [Example 34, 6-(3-cyanopyrrolo[1,2-b]pyridazin-7-yl)-4-(isopropylamino)-N-(methylsulfonyl) nicotinamide]: over 10000 nM and 9380 nM.
Take `CC(C)Nc1cc(-c2ccc3cc(C#N)cnn23)ncc1C(=O)N[C@H]1CCOC1` [Example 36, (S)-6-(3-cyanopyrrolo[1,2-b]pyridazin-7-yl)-4-(isopropylamino)-N-(tetrahydrofuran-3-yl) nicotinamide]: in assay [1] (Homo sapiens, Monocyte), the EC50 was determined as 221 nM. The compound further had an IC50 in assay [2] of 15 nM.
The matching figures for `CC(C)Nc1cc(-c2ccc3cc(C#N)cnn23)ncc1C(=O)N[C@@H]1CCOC1` [Example 37, (R)-6-(3-cyanopyrrolo[1,2-b]pyridazin-7-yl)-4-(isopropylamino)-N-(tetrahydrofuran-3-yl) nicotinamide]: 283 nM and 12 nM.
On the same counts, the results for `CNC(=O)c1cnc(-c2ccc3cc(C#N)cnn23)cc1NC(C)C` [Example 38, 6-(3-cyanopyrrolo[1,2-b]pyridazin-7-yl)-4-(isopropylamino)-N-methylnicotinamide] are 91 nM and 2 nM.
Take `CC(C)Nc1cc(-c2ccc3cc(C#N)cnn23)ncc1C(N)=O` [Example 39, 6-(3-cyanopyrrolo[1,2-b]pyridazin-7-yl)-4-(isopropylamino) nicotinamide]: the EC50 in assay [1] (Homo sapiens, Monocyte) turned out to be 507 nM. This compound registered an IC50 in assay [2] of 4 nM.
`CC(C)(O)[C@H](F)CNC(=O)c1cnc(-c2ccc3cc(C#N)cnn23)cc1NC1CC(F)(F)C1` [Example 40, (R)-6-(3-cyanopyrrolo[1,2-b]pyridazin-7-yl)-4-((3,3-difluorocyclobutyl)amino)-N-(2-fluoro-3-hydroxy-3-methylbutyl)nicotinamide]: the EC50 in assay [1] (Homo sapiens, Monocyte) amounted to 73 nM. In assay [2], the IC50 is under 1 nM.
`CC(C)Nc1cc(-c2ccc3cc(C#N)cnn23)ncc1C(=O)NCCC(C)(C)O` [Example 41, 6-(3-cyanopyrrolo[1,2-b]pyridazin-7-yl)-N-(3-hydroxy-3-methylbutyl)-4-(isopropylamino) nicotinamide]: the EC50 in assay [1] (Homo sapiens, Monocyte) was determined as 78 nM. This compound also returned an IC50 in assay [2] of under 1 nM.
Consider `CC(C)(O)[C@H](F)CNC(=O)c1cnc(-c2ccc3cc(C#N)cnn23)cc1NC1CCOCC1` [Example 42, (R)-6-(3-cyanopyrrolo[1,2-b]pyridazin-7-yl)-N-(2-fluoro-3-hydroxy-3-methylbutyl)-4-((tetrahydro-2H-pyran-4-yl)amino)nicotinamide], for which, in assay [1] (Homo sapiens, Monocyte), the EC50 worked out at 35 nM. Also, the IC50 in assay [2] was under 1 nM.
The matching figures for `CC(C)(O)[C@H](F)CNC(=O)c1cnc(-c2ccc3cc(C#N)cnn23)cc1Nc1cnn(C2COC2)c1` [Example 43, (R)-6-(3-cyanopyrrolo[1,2-b]pyridazin-7-yl)-N-(2-fluoro-3-hydroxy-3-methyl-butyl)-4-((1-(oxetan-3-yl)-1H-pyrazol-4-yl)amino) nicotinamide]: 30 nM and under 1 nM.
The matching figures for `CC(C)(O)[C@H](F)CNC(=O)c1cnc(-c2ccc3cc(C#N)cnn23)cc1NN1CCOCC1` [Example 44, (R)-6-(3-cyanopyrrolo[1,2-b]pyridazin-7-yl)-N-(2-fluoro-3-hydroxy-3-methylbutyl)-4-(morpholinoamino) nicotinamide]: over 10000 nM and 6630 nM.
The matching figures for `CC(C)Nc1cc(-c2ccc3cc(C#N)cnn23)ncc1C(=O)NC1CC1CO` (stereo not drawn) [Example 45, 6-(3-cyanopyrrolo[1,2-b]pyridazin-7-yl)-N-(2-(hydroxymethyl)cyclopropyl)-4-(isopropylamino) nicotinamide]: 255 nM and 10 nM.
As for `CC(C)(O)[C@H](F)CNC(=O)c1cnc(-c2ccc3cc(C#N)cnn23)cc1NC1CCN(S(C)(=O)=O)CC1` [Example 46, (R)-6-(3-cyanopyrrolo[1,2-b]pyridazin-7-yl)-N-(2-fluoro-3-hydroxy-3-methylbutyl)-4-((1-(methylsulfonyl)piperidin-4-yl)amino)nicotinamide], the EC50 in assay [1] (Homo sapiens, Monocyte) turned out to be 37 nM. For the same compound, in assay [2], the IC50 was under 1 nM.
The matching figures for `Cn1cc(Nc2cc(-c3ccc4cc(C#N)cnn34)ncc2C(=O)NC[C@@H](F)C(C)(C)O)cn1` [Example 47, (R)-6-(3-cyanopyrrolo[1,2-b]pyridazin-7-yl)-N-(2-fluoro-3-hydroxy-3-methylbutyl)-4-((1-methyl-1H-pyrazol-4-yl)amino)nicotinamide]: 37 nM and under 1 nM.
